In ChEMBL document CHEMBL5365531, “Structure-Activity Relationship Studies of SARS-CoV-2 Main Protease Inhibitors Containing 4-Fluorobenzothiazole-2-carbonyl Moieties” (J Med Chem, 2023):
pEC50: −log10 of the molar value.

How the values were obtained:
[1] = Mutagenicity in Salmonella typhimurium TA1537 assessed as inhibition of bacterial growth at 0.152 to 333 ug incubated in presence of S9 fraction by micro-Ames test; format: toxicity, subcellular, Salmonella enterica subsp. enterica serovar Typhimurium; conditions: dose 0.152-333 µg
[2] = Mutagenicity in Salmonella typhimurium TA1535 assessed as fold increase in number of revertants at 0.152 to 333 ug incubated in presence of S9 fraction by micro-Ames test relative to control; format: toxicity, subcellular, Salmonella enterica subsp. enterica serovar Typhimurium; conditions: dose 0.152-333 µg
[3] = Mutagenicity in Salmonella typhimurium TA100 assessed as fold increase in number of revertants at 0.152 to 333 ug incubated in absence of S9 fraction by micro-Ames test relative to control; format: toxicity, Salmonella enterica subsp. enterica serovar Typhimurium; conditions: in vivo; dose 0.152-333 µg
[4] = Mutagenicity in Salmonella typhimurium TA98 assessed as fold increase in number of revertants at 0.152 to 333 ug incubated in absence of S9 fraction by micro-Ames test relative to control; format: toxicity, Salmonella enterica subsp. enterica serovar Typhimurium; conditions: in vivo; dose 0.152-333 µg
[5] = Oral bioavailability in PXB mouse at 10 mg/kg measured for 24 hrs; format: ADME, organism-based; conditions: in vivo
[6] = Mutagenicity in Salmonella typhimurium TA1535 assessed as fold increase in number of revertants at 0.152 to 333 ug incubated in absence of S9 fraction by micro-Ames test relative to control; format: toxicity, Salmonella enterica subsp. enterica serovar Typhimurium; conditions: in vivo; dose 0.152-333 µg
[7] = Mutagenicity in Escherichia coli WP2uvrA assessed as inhibition of bacterial growth at 0.152 to 333 ug incubated in absence of S9 fraction by micro-Ames test; format: toxicity; conditions: in vivo; dose 0.152-333 µg
SARS-CoV-2 [8] = test: Antiviral activity against SARS-CoV-2 assessed as fold change relative to YH-53; format: functional, Severe acute respiratory syndrome coronavirus 2
Vero C1008 = test: Cytotoxicity against African green monkey Vero E6 cells infected with SARS-CoV-2 WK-521 upto 100 uM incubated for 3 days by immunostaining analysis; format: toxicity, cell-based; conditions: chlorocebus sabaeus, vero c1008, 72 h, time 3 day
[9] = Mutagenicity in Salmonella typhimurium TA1535 assessed as inhibition of bacterial growth at 0.152 to 333 ug incubated in presence of S9 fraction by micro-Ames test; format: toxicity, subcellular, Salmonella enterica subsp. enterica serovar Typhimurium; conditions: dose 0.152-333 µg
[10] = Cytotoxicity against human A549-hACE2-TMPRSS2 cells; format: toxicity, cell-based
MOLT-4 = test: Cytotoxicity against human MOLT-4 cells assessed as reduction in cell viability at 0.4 uM incubated for 12 days by CCK-8 assay; format: toxicity, cell-based; conditions: molt-4, 288 h, time 12 day
[11] = Mutagenicity in Salmonella typhimurium TA100 assessed as fold increase in number of revertants at 0.152 to 333 ug incubated in presence of S9 fraction by micro-Ames test relative to control; format: toxicity, subcellular, Salmonella enterica subsp. enterica serovar Typhimurium; conditions: dose 0.152-333 µg
[12] = Mutagenicity in Salmonella typhimurium TA98 assessed as inhibition of bacterial growth at 0.152 to 333 ug incubated in presence of S9 fraction by micro-Ames test; format: toxicity, subcellular, Salmonella enterica subsp. enterica serovar Typhimurium; conditions: dose 0.152-333 µg
SARS-CoV-2 [13] = test: Antiviral activity against SARS-CoV-2 infected in Vero E6 cells preincubated with cells for 1 day in presence of HCl treated compound followed by viral infection and measured after 3 days by qRT-PCR analysis; format: functional, organism-based; conditions: Severe acute respiratory syndrome coronavirus 2, Vero C1008
[14] = Mutagenicity in Salmonella typhimurium TA1535 assessed as inhibition of bacterial growth at 0.152 to 333 ug incubated in absence of S9 fraction by micro-Ames test; format: toxicity, Salmonella enterica subsp. enterica serovar Typhimurium; conditions: in vivo; dose 0.152-333 µg
[15] = Mutagenicity in Salmonella typhimurium TA1537 assessed as inhibition of bacterial growth at 0.152 to 333 ug incubated in absence of S9 fraction by micro-Ames test; format: toxicity, Salmonella enterica subsp. enterica serovar Typhimurium; conditions: in vivo; dose 0.152-333 µg
SARS-CoV-2 [16] = test: Antiviral activity against SARS-CoV-2 hCoV-19/Japan/TKYS02037/2022 (omicron BA.2) infected in Vero E6 cells preincubated with cells for 1 day followed by viral infection and measured after 3 days by qRT-PCR analysis; format: functional, organism-based; conditions: Severe acute respiratory syndrome coronavirus 2, hCoV-19/Japan/TKYS02037/2022 (omicron BA.2), Vero C1008
[17] = Cytotoxicity against African green monkey Vero E6 cells in presence of P-glycoprotein inhibitor, CP100356; format: toxicity, cell-based, Vero C1008; conditions: chlorocebus sabaeus, with CP100356 (P-glycoprotein inhibitor)
[18] = Mutagenicity in Escherichia coli WP2uvrA assessed as fold increase in number of revertants at 0.152 to 333 ug incubated in absence of S9 fraction by micro-Ames test relative to control; format: toxicity; conditions: in vivo; dose 0.152-333 µg
[19] = Mutagenicity in Salmonella typhimurium TA98 assessed as inhibition of bacterial growth at 0.152 to 333 ug incubated in absence of S9 fraction by micro-Ames test; format: toxicity, Salmonella enterica subsp. enterica serovar Typhimurium; conditions: in vivo; dose 0.152-333 µg
[20] = Cytotoxicity against human HepG2 cells; format: toxicity, cell-based
[21] = Cytotoxicity against human HeLa cells expressing ACE2 and TMPRSS2; format: toxicity, cell-based
[22] = Mutagenicity in Salmonella typhimurium TA1537 assessed as fold increase in number of revertants at 0.152 to 333 ug incubated in absence of S9 fraction by micro-Ames test relative to control; format: toxicity, Salmonella enterica subsp. enterica serovar Typhimurium; conditions: in vivo; dose 0.152-333 µg
SARS-CoV-2 [23] = test: Antiviral activity against SARS-CoV-2 JPN/TY/WK-521 infected in Vero E6 cells assessed as inhibition of viral replication preincubated with cells for 1 day followed by viral infection and measured after 3 to 4 days by qRT-PCR analysis; format: functional, organism-based; conditions: Severe acute respiratory syndrome coronavirus 2, JPN/TY/WK-521, Vero C1008
[24] = Mutagenicity in Escherichia coli WP2uvrA assessed as fold increase in number of revertants at 0.152 to 333 ug incubated in presence of S9 fraction by micro-Ames test relative to control; format: toxicity, subcellular; conditions: dose 0.152-333 µg
[25] = Half life in PXB mouse at 10 mg/kg, iv measured for 24 hrs; format: ADME, organism-based; conditions: in vivo
SARS-CoV-2 [26] = test: Antiviral activity against SARS-CoV-2 JPN/TY/WK-521 infected in Vero E6 cells assessed as fold change preincubated with cells for 1 day followed by viral infection and measured after 3 days by qRT-PCR analysis relative to 7-fluoro-N-((S)-1-(((S)-1-(4-fluorobenzo[d]thiazol-2-yl)-1-oxo-3-((S)-2-oxopyrrolidin-3-yl)propan-2-yl)amino)-3,3-dimethyl-1-oxobutan-2-yl)-4-methoxy-1H-indole-2-carboxamide; format: functional, Severe acute respiratory syndrome coronavirus 2; conditions: time 4 day
MT2 = test: Cytotoxicity against human MT2 cells assessed as reduction in cell viability at 0.4 uM incubated for 12 days by CCK-8 assay; format: toxicity, cell-based; conditions: mt2, 288 h, time 12 day
[27] = Mutagenicity in Salmonella typhimurium TA100 assessed as inhibition of bacterial growth at 0.152 to 333 ug incubated in presence of S9 fraction by micro-Ames test; format: toxicity, subcellular, Salmonella enterica subsp. enterica serovar Typhimurium; conditions: dose 0.152-333 µg
[28] = Mutagenicity in Salmonella typhimurium TA98 assessed as fold increase in number of revertants at 0.152 to 333 ug incubated in presence of S9 fraction by micro-Ames test relative to control; format: toxicity, subcellular, Salmonella enterica subsp. enterica serovar Typhimurium; conditions: dose 0.152-333 µg
SARS-CoV-2 [29] = test: Antiviral activity against SARS-CoV-2 infected in Vero E6 cells preincubated with cells for 1 day in absence of HCl followed by viral infection and measured after 3 days by qRT-PCR analysis; format: functional, organism-based; conditions: Severe acute respiratory syndrome coronavirus 2, Vero C1008
[30] = Mutagenicity in Escherichia coli WP2uvrA assessed as inhibition of bacterial growth at 0.152 to 333 ug incubated in presence of S9 fraction by micro-Ames test; format: toxicity, subcellular; conditions: dose 0.152-333 µg
SARS-CoV-2 [31] = test: Antiviral activity against SARS-CoV-2 JPN/TY/WK-521 infected in Vero E6 cells preincubated with cells for 1 day followed by viral infection and measured after 3 days by qRT-PCR analysis; format: functional, organism-based; conditions: Severe acute respiratory syndrome coronavirus 2, JPN/TY/WK-521, Vero C1008
[32] = Cytotoxicity against African green monkey Vero E6 cells incubated for 3 days by WST-8 assay; format: toxicity, cell-based, Vero C1008; conditions: chlorocebus sabaeus, time 3 day
[33] = Mutagenicity in Salmonella typhimurium TA100 assessed as inhibition of bacterial growth at 0.152 to 333 ug incubated in absence of S9 fraction by micro-Ames test; format: toxicity, Salmonella enterica subsp. enterica serovar Typhimurium; conditions: in vivo; dose 0.152-333 µg
PBMC = test: Cytotoxicity against human PBMC cells assessed as reduction in cell viability at 0.4 uM incubated for 12 days by CCK-8 assay; format: toxicity, cell-based; conditions: 288 h, time 12 day
[34] = Half life in PXB mouse at 10 mg/kg, po measured for 24 hrs; format: ADME, organism-based; conditions: in vivo
[35] = Mutagenicity in Salmonella typhimurium TA1537 assessed as fold increase in number of revertants at 0.152 to 333 ug incubated in presence of S9 fraction by micro-Ames test relative to control; format: toxicity, subcellular, Salmonella enterica subsp. enterica serovar Typhimurium; conditions: dose 0.152-333 µg

SMILES: CC(C)(C)[C@H](NC(=O)C(F)(F)F)C(=O)N1C[C@H]2[C@@H]([C@H]1C(=O)N[C@@H](C[C@@H]1CCNC1=O)C(=O)c1nc3c(F)cccc3s1)C2(C)C
- Activity [1]: Non-Toxic
- fold change (FC) [2]: > 2
- fold change (FC) [3]: > 2
- fold change (FC) [4]: > 2
- bioavailability [5]: 48%
- fold change (FC) [6]: > 2
- Activity [7]: Non-Toxic
- fold change (FC) (SARS-CoV-2 [8]): 0.012
- Activity (Vero C1008): Non-Toxic
- Activity [9]: Non-Toxic
- CC50 [10]: > 100 µM
- Activity (MOLT-4): Non-Toxic
- fold change (FC) [11]: > 2
- Activity [12]: Non-Toxic
- pEC50 (SARS-CoV-2 [13]): 7.06
- Activity [14]: Non-Toxic
- Activity [15]: Non-Toxic
- pEC50 (SARS-CoV-2 [16]): 7.32
- CC50 [17]: > 100 µM
- fold change (FC) [18]: > 2
- Activity [19]: Non-Toxic
- CC50 [20]: > 200 µM
- CC50 [21]: > 100 µM
- fold change (FC) [22]: > 2
- pEC50 (SARS-CoV-2 [23]): 7.52
- fold change (FC) [24]: > 2
- half-life [25]: 1.25 h
- fold change (FC) (SARS-CoV-2 [26]): 0.057
- Activity (MT2): Non-Toxic
- Activity [27]: Non-Toxic
- fold change (FC) [28]: > 2
- pEC50 (SARS-CoV-2 [29]): 7.13
- Activity [30]: Non-Toxic
- pEC50 (SARS-CoV-2 [31]): 7.92
- CC50 at 72 h [32]: > 100 µM
- Activity [33]: Non-Toxic
- Activity (PBMC): Non-Toxic
- half-life [34]: 3.82 h
- fold change (FC) [35]: > 2
